Laboratory results reported in ChEMBL document CHEMBL5257082, “Bacterial GTPases as druggable targets to tackle antimicrobial resistance” (Bioorg Med Chem Lett, 2023).
≈ marks a conversion by molar mass, not a printed value.

Columns and labels:
Staphylococcus aureus [1] = test: Antibacterial activity against Staphylococcus aureus; assay type: functional
Escherichia coli = test: Antibacterial activity against Escherichia coli; assay type: functional
Staphylococcus aureus [2] = test: Antibacterial activity against methicillin-resistant Staphylococcus aureus; assay type: functional
[3] = Intrinsic clearance in BALB/c mouse at 24 mg/kg, iv; assay type: ADME, organism-based; details: in vivo
Staphylococcus aureus [4] = test: Antibacterial activity against linezolid-nonsusceptible Staphylococcus aureus; assay type: functional
Staphylococcus aureus [5] = test: Antibacterial activity against vancomycin-resistant Staphylococcus aureus; assay type: functional
Streptococcus pyogenes = test: Antibacterial activity against Streptococcus pyogenes; assay type: functional
[6] = target: T1, Cell division protein FtsZ (Staphylococcus aureus, UniProt P0A031); test: Inhibition of Staphylococcus aureus FTsZ GTPase activity
T1 sequence (P0A031 whole entry): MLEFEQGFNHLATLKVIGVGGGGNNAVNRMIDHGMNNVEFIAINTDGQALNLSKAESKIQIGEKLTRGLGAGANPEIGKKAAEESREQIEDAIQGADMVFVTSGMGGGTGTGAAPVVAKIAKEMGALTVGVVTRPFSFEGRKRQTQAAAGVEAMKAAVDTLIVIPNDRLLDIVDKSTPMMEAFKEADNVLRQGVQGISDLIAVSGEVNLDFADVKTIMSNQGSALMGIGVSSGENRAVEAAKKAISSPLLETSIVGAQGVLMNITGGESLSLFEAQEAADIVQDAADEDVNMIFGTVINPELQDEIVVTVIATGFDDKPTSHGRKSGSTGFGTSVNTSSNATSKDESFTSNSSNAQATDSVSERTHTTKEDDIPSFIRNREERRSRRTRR

Enterococcus faecalis = test: Antibacterial activity against Enterococcus faecalis; assay type: functional
Streptococcus pneumoniae = test: Antibacterial activity against Streptococcus pneumoniae; assay type: functional
Bacillus subtilis = test: Antibacterial activity against Bacillus subtilis; assay type: functional
Neisseria gonorrhoeae = test: Antibacterial activity against Neisseria gonorrhoeae; assay type: functional
Enterococcus faecium = test: Antibacterial activity against Enterococcus faecium; assay type: functional
Haemophilus influenzae = test: Antibacterial activity against Haemophilus influenzae; assay type: functional
Pseudomonas aeruginosa = test: Antibacterial activity against Pseudomonas aeruginosa; assay type: functional
Acinetobacter baumannii = test: Antibacterial activity against Acinetobacter baumannii; assay type: functional
Klebsiella pneumoniae = test: Antibacterial activity against Klebsiella pneumoniae; assay type: functional
Micrococcus luteus = test: Antibacterial activity against Micrococcus luteus; assay type: functional
Neisseria meningitidis = test: Antibacterial activity against Neisseria meningitidis; assay type: functional

Cc1cc(Cl)ccc1OC(C)C(=O)Nc1ccc(C(=O)Nc2ccccc2C(=O)O)cc1 (centres undefined)
MIC (Staphylococcus aureus [1]): > 25 µg/mL | MIC (Escherichia coli): > 200 µg/mL

CN1CCC(C(=O)NC(=O)c2c(F)ccc(OCc3nc4cc(C(F)(F)F)cnc4s3)c2F)CC1
MIC (Staphylococcus aureus [2]): 2 µg/mL (≈ 3.89 µM) | CL [3]: 9.4 mL/min/kg | MIC (Staphylococcus aureus [4]): 2 µg/mL (≈ 3.89 µM) | MIC (Staphylococcus aureus [5]): 2 µg/mL (≈ 3.89 µM)

NC(=O)c1c(F)ccc(OCc2nc3cc(Cl)cnc3s2)c1F
MIC (Streptococcus pyogenes): > 64 µg/mL | IC50 [6]: 150 nM | MIC (Staphylococcus aureus [2]): 1 µg/mL (≈ 2.81 µM) | MIC (Enterococcus faecalis): > 64 µg/mL | MIC (Streptococcus pneumoniae): > 64 µg/mL | CL [3]: 55.11 mL/min/kg | MIC (Escherichia coli): > 64 µg/mL | MIC (Bacillus subtilis): 1 µg/mL (≈ 2.81 µM)

COc1ccc(/C=C(\C#N)C(=O)Nc2cccc(C(=O)O)c2)cc1OC(=O)c1cccc2ccccc12
MIC (Staphylococcus aureus [1]): > 50 µg/mL | MIC (Escherichia coli): > 200 µg/mL

C/C=C\C=C\[C@@H]1C[C@](O)([C@H](CC)C(=O)NC/C=C/C=C(\C)[C@H](OC)[C@H](C)C2O[C@H](/C=C/C=C/C=C(\C)C(=O)c3c(O)cc[nH]c3=O)[C@H](O)[C@@H]2O)[C@H](O)[C@H](O)C1(C)C (some centres undefined)
MIC (Staphylococcus aureus [1]): > 32 µg/mL | MIC (Neisseria gonorrhoeae): 0.06 µg/mL (≈ 0.0755 µM) | MIC (Enterococcus faecium): 2 µg/mL (≈ 2.52 µM) | MIC (Enterococcus faecalis): > 32 µg/mL | MIC (Haemophilus influenzae): 4 µg/mL (≈ 5.03 µM) | MIC (Escherichia coli): > 128 µg/mL

O=C(O)c1[nH]c2ccc(Cl)cc2c1CC(=O)N1CCN(c2ccc(C(F)(F)F)cc2)CC1
MIC (Staphylococcus aureus [1]): > 50 µg/mL | MIC (Escherichia coli): > 200 µg/mL

CO[C@@H]1[C@H](O)[C@@H](OC)[C@H](O[C@@H](C)[C@@H](O)/C=C/C=C/C=C/C(=O)[C@@H](C)[C@@H](O)[C@H](C)C2C/C=C/C=C/C=C/[C@H](O)C(=O)/C(C)=C/C=C/C(C)=C/[C@@H](O)/C(C)=C/CC(=O)O2)O[C@@H]1C (some centres undefined)
MIC (Staphylococcus aureus [1]): 2 µg/mL (≈ 2.38 µM) | MIC (Pseudomonas aeruginosa): 32 µg/mL (≈ 38.1 µM) | MIC (Acinetobacter baumannii): 32 µg/mL (≈ 38.1 µM) | MIC (Enterococcus faecalis): 32 µg/mL (≈ 38.1 µM) | MIC (Klebsiella pneumoniae): > 128 µg/mL | MIC (Escherichia coli): 32 µg/mL (≈ 38.1 µM)

CC/C=C/[C@@H](OC(N)=O)[C@@H](Cl)[C@H](O)CC(=O)[C@@H](O)[C@H](O)C(C)/C(Cl)=C/C=C/C=C(C)/C=C/C=C/C(=O)O[C@@H]1CC(C(=O)O)CC[C@@H]1O (some centres undefined)
MIC (Staphylococcus aureus [1]): 2 µg/mL (≈ 2.85 µM) | MIC (Pseudomonas aeruginosa): > 32 µg/mL | MIC (Acinetobacter baumannii): > 32 µg/mL

CC(=O)O[C@H]1C[C@@]2(C)[C@@H](C[C@@H](O)[C@H]3[C@@]4(C)CC[C@@H](O)[C@@H](C)[C@@H]4CC[C@@]32C)/C1=C(\CCC=C(C)C)C(=O)O [FUSIDIC ACID]
MIC (Streptococcus pyogenes): 16 µg/mL (≈ 31 µM) | MIC (Staphylococcus aureus [2]): 0.25 µg/mL (≈ 0.484 µM) | MIC (Enterococcus faecalis): 2 µg/mL (≈ 3.87 µM) | MIC (Micrococcus luteus): 0.5 µg/mL (≈ 0.968 µM) | MIC (Escherichia coli): > 32 µg/mL | MIC (Neisseria meningitidis): 0.25 µg/mL (≈ 0.484 µM)
